ChEMBL document CHEMBL4118021, “Studies of TAK1-centered polypharmacology with novel covalent TAK1 inhibitors” (Bioorg Med Chem, 2017)
The source made the active and inactive calls.

Tests used:
Assay type in all cases: cell-based
[1] = target: 80S Ribosome (Homo sapiens) (UniProt P08865+P42677+P62753+P15880+P23396+P61247+P62701+P22090+P46782+P62081+P62241+P46781+P46783+P62280+P25398+P62277+P62263+P62841+P62244+P62249+P08708+P62269+P39019+P60866+P63220+P62266+P62847+P62851+P62854+P62979+P62857+P62273+P62861+P39023+P36578+P46777+Q02878+P18124+P62424+P62917+P32969+P27635+P62906+P62913+P30050+P26373+P40429+P50914+P61313+P18621+Q07020+Q02543+P84098+P46778+P35268+P62829+P62750+P83731+P61254+P61353+P46776+P46779+P47914+P62888+P62899+P62910+P49207+P42766+P18077+Q9Y3U8+P83881+P61927+P61513+P63173+P62891+P62945+P05388+P05386); assay: Binding affinity to RPS5 in human NCI-H23 cells at 1 uM by mass spectrometry based pull down assay
[2] = target: 14-3-3 protein epsilon (Homo sapiens) (UniProt P62258); assay: Binding affinity to YWHAE in human NCI-H23 cells at 1 uM by mass spectrometry based pull down assay
Chain of 14-3-3 protein epsilon (Homo sapiens) (P62258 whole entry): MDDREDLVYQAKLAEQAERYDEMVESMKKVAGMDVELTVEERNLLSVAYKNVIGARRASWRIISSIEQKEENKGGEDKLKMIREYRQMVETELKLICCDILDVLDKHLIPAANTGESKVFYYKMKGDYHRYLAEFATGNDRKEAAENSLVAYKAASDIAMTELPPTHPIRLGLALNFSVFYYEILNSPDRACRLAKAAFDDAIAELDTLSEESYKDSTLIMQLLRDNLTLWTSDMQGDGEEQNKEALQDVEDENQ

[3] = target: 14-3-3 protein eta (Homo sapiens) (UniProt Q04917); assay: Binding affinity to YWHAH in human NCI-H358 cells at 1 uM by mass spectrometry based pull down assay
Chain of 14-3-3 protein eta (Homo sapiens) (Q04917 whole entry): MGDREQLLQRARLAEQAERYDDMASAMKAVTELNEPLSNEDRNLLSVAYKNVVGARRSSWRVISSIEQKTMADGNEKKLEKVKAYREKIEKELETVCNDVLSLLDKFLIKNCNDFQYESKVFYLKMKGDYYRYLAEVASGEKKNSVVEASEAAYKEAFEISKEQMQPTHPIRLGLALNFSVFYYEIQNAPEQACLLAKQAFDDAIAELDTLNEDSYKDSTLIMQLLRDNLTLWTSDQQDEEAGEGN

[4] = target: T1, Serine/threonine-protein kinase Nek9 (Homo sapiens) (UniProt Q8TD19); assay: Binding affinity to NEK9 in human NCI-H23 cells at 1 uM by mass spectrometry based pull down assay
T1 sequence (whole entry): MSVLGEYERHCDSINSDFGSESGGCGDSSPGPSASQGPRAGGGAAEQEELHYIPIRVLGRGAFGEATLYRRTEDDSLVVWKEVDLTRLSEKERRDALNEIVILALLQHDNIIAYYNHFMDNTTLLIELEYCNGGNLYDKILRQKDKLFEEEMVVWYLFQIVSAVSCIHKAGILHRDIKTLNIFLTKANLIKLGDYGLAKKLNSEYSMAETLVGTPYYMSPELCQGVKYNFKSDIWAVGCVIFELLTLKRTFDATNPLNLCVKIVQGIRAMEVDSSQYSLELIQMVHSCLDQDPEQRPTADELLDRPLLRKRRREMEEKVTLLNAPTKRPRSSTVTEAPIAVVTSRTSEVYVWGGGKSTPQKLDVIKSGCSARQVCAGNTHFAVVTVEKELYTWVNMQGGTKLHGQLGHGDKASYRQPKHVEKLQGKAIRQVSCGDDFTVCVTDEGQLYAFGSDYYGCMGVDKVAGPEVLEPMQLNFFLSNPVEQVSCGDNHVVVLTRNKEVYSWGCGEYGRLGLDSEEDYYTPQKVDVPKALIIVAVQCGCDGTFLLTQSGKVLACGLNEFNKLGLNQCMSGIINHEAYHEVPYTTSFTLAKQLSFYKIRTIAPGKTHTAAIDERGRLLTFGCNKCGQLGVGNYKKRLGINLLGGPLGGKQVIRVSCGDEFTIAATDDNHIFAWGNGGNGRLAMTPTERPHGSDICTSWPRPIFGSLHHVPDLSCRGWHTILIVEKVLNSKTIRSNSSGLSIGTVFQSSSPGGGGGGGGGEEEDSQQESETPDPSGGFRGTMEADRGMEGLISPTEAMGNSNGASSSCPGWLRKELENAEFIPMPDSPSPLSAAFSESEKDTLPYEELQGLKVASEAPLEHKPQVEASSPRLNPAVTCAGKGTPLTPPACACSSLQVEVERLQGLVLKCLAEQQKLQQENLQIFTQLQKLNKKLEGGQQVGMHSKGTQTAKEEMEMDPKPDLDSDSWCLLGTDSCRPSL

Measured: Activity

C=CC(=O)Nc1ccccc1Nc1nc(Nc2ccc(N3CCN(CCOCCOCCOCCNC(=O)CCCC[C@@H]4SC[C@@H]5NC(=O)N[C@@H]54)CC3)cc2)ncc1Cl
active: all assays above
